Results taken from PMC9323266, “Competitive Metabolism of Polycyclic Aromatic Hydrocarbons (PAHs): An Assessment Using In Vitro Metabolism and Physiologically Based Pharmacokinetic (PBPK) Modeling” (International Journal of Environmental Research and Public …, 2022).
Like-named read-outs stand apart in the source and are kept apart here.

Assays:
[1] = cited from earlier work; for Carcinogenic (classifying agencies): classified as Suspected, Possible, Probable, or Confirmed carcinogen in animal models or humans by EPA, IARC or ACGIH
[2] = design: method as in PMID 34933053; conditions: cited from earlier work
[3] = system: benzo[a]pyrene (BaP) metabolism in human hepatic microsomes; test: Competitive inhibition of BaP metabolism in human hepatic microsomes; format: in vitro ADME
Procedure: (§1) Competitive inhibition of PAH metabolism was measured using conditions described above. […] Each experimental condition (e.g., substrate, concentration, time point, etc.) was conducted in triplicate.
(§2) Analytes were extracted from samples with liquid–liquid extraction and measured using high-performance liquid chromatography (HPLC). First, BaP, DBC, or retene was added as an internal standard depending on incubations conditions being tested. Samples were extracted using three 500 µL volumes of ethyl acetate. Extracts were dried under a gentle stream of nitrogen and resolubilized in 500 µL methanol. Analytes were quantified by reverse phase HPLC using an Agilent 1260 Infinity HPLC system equipped with an Agilent G4290B variable wavelength detector and an Agilent G1321B SPECTRA fluorescence detector (Santa Clara, CA, USA). […] Quantification was accomplished using a linear regression fit to an external calibration curve prepared in tandem with samples.
(§3) As with previous in vitro PAH metabolism studies conducted in our lab, metabolism rates were calculated based on substrate disappearance. […] Confidence intervals of metabolism rates were calculated using a nonparametric bootstrap, where metabolism rates were resampled with replacement at each concentration, and the regression was repeated on the resampled dataset (n = 1000). […]

[4] = system: human hepatic microsomes; test: In vitro metabolism (substrate disappearance) in pooled human liver microsomes; format: in vitro ADME; conditions: human hepatic microsomes
Procedure: (§4) Pooled human liver microsome samples were obtained from Sekisui Xenotech, LLC (Kansas City, KS, USA). Pooled samples contained contributions from 200 individuals having equal male:female ratio and predominantly from humans between 19 and 78 years of age (3 individuals 10–18 years old).
(§5) Briefly, within 500 µL total volume, reactions consisted of MgCl2 (3 mM), microsomes (2.0 mg/mL), 0.1 M phosphate buffer (pH 7.4), and excess NADPH (1.5 mM). Control samples using inactivated microsomes absent of NADPH were also included. Microsomes were preactivated via 37 °C incubation on a thermal shaker for 5 min. […] Samples were incubated at 37 °C for 0–30 min or 0–60 min, respectively. Reactions were quenched by adding 500 µL 0.9 M H2SO4, and samples were immediately placed on ice until extraction. A standard curve was prepared (0.015 µM–25.0 µM) in inactivated microsomes. An internal standard was added to each quenched sample (DBC for BaP kinetics reactions and BaP for DBC kinetics reactions). Experiments were performed in triplicate.
as §2, with “USA). Sample (10 µL) was injected into an Ascentis 25 cm × 4.6 mm, 5 µm C18 column (Sigma-Aldrich, St. Louis, MO, USA). A gradient of water and acetonitrile from 55:45 to 0:100 was employed from 0 to 10 min and then was held at 100% acetonitrile until 22 min at a flow rate of 0.95 mL/min. […] Excitation and emission wavelengths were 230 nm and 430 nm, respectively.” for “USA).”
(§6) As with previous in vitro PAH metabolism studies conducted in our lab, metabolism rates were calculated based on substrate disappearance. […] Confidence intervals of metabolism rates were calculated using a nonparametric bootstrap, where metabolism rates were resampled with replacement at each concentration, and the regression was repeated on the resampled dataset (n = 1000).
(§7) These two models include a Michaelis–Menten clearance equation for non-saturable high-capacity/low-affinity enzymes (Equation (2)) and a double Michaelis–Menten equation for saturable high-capacity/low-affinity enzymes (Equation (3)). Models were optimized using a maximum likelihood objective. The Bayesian information criterion (BIC) was used to judge the best-fit model for evaluating metabolism. For Michaelis–Menten kinetics, intrinsic clearance values (Clint) of the first order phase were estimated by dividing the Vmax by the respective Km. Fit parameter confidence intervals were calculated using a parametric bootstrap (n = 1000), where each best fit model was re-optimized to sampled metabolic rates assuming a normal distribution at each […]:(1) dS/dt=Vmax×S/Km+S (2) dS/dt=Vmax1×S/Km1+S+Clint2×S (3) dS/dt=Vmax1×S/Km1+S+Vmax2×S/Km2+S

[5] = as above; format: in vitro ADME; conditions: both sexes; for microsomal CLint: human, microsomes, pH 7.4, human hepatic microsomes
Procedure: as §4, §5
as §2, with “USA). Sample (10 µL) was injected into an Ascentis 25 cm × 4.6 mm, 5 µm C18 column (Sigma-Aldrich, St. Louis, MO, USA). A gradient of water and acetonitrile from 55:45 to 0:100 was employed from 0 to 10 min and then was held at 100% acetonitrile until 22 min at a flow rate of 0.95 mL/min. […] Excitation and emission wavelengths were 230 nm and 430 nm, respectively.” for “USA).”
as §6, §7

[6] = system: DBC metabolism in human hepatic microsomes; test: Competitive inhibition of DBC metabolism in human hepatic microsomes; format: in vitro ADME; conditions: both sexes, human, pH 7.4
Procedure: as §1, §2, §3

[7] = target: dibenzo[def,p]chrysene (DBC) metabolism in human hepatic microsomes; test: as above; format: in vitro ADME; conditions: substrate DBC 0.17 µM initial, human hepatic microsomes, apparent Ki, Equation (4); read-out: Inhibition constant (Ki) of competitive inhibitor to DBC metabolism
Procedure: as §1, §2, §3

[8] = system: CYP3A4; conditions: Supersomes expressing human CYPs; cited from earlier work
[9] = system: CYP1A1 and CYP2C19; conditions: Supersomes expressing human CYPs; cited from earlier work
[10] = Michaelis-Menten clearance model fit, high-affinity/low-capacity enzyme

For c1ccc2ccccc2c1 [naphthalene], the “Carcinogenic (classifying agencies)” value [1] is given as “EPA, IARC, ACGIH”.

For c1ccc2cc3c(ccc4ccccc43)cc2c1 [benzo(a)anthracene], the “Carcinogenic (classifying agencies)” value [1] is listed as “EPA, IARC, ACGIH”.

For c1ccc2c(c1)cc1ccc3cccc4c5ccccc5c2c1c34 [DBC, dibenzo[def,p]chrysene], the “log Kow” value [2] is given as 7.71, the “Inhibition of the rate of BaP metabolism” value ([3]; inhibitor ≥1 µM, 0.14 µM BaP initial substrate concentration) is given as at least 48% and the Ki ([3]; read-out: Inhibition constant (Ki) of competitive inhibitor to BaP metabolism, substrate BaP 0.14-0.18 µM initial, human hepatic microsomes, apparent Ki, Equation (4)) is given as 0.44 µM. The “Rates of metabolism, times slower than rates of BaP metabolism” value [4] was 3–5 times, the Vmax1 [4, 10] was 0.0009 nmol/min/mg Micro and the Km ([4]; Michaelis-Menten clearance model fit, high-affinity/low-capacity enzyme, read-out: Km 1) was 0.06 µM. For the same molecule, the “Clint 1” value ([4]; first order phase, Vmax divided by Km) was 0.015 mL/min, the “Clint 2” value ([4]; non-saturable low-affinity/high-capacity enzyme) was 0.0017 mL/min and the “Relative Potency Factor” value ([1]; cancer potency relative to BaP index compound) was 30.

In the case of c1ccc2c(c1)cc1ccc3cccc4ccc2c1c34 [BaP, benzo[a]pyrene], the “log Kow” value [2] is given as 6.13, the “Intrinsic clearance compared to that of DBC” value [4] is given as “nearly five-fold faster” and the Vmax1 [4, 10] is given as 0.0063 nmol/min/mg Micro. For the same molecule, the microsomal CLint ([5]; first order phase, Vmax divided by Km, read-out: Clint 1) was 72 µL/min/mg, the microsomal CLint ([5]; non-saturable low-affinity/high-capacity enzyme, read-out: Clint 2) was 1.2 µL/min/mg and the Km ([5]; pH 7.4, human hepatic microsomes, Michaelis-Menten clearance model fit, high-affinity/low-capacity enzyme, read-out: Km 1) was 0.088 µM. The inhibition at 1 µM [6] was 62%, the Ki [7] was 0.061 µM and the “Share of 3-hydroxy-BaP produced by CYP3A4” value [8] was 53%. The “Share of BaP-7,8-diol produced by CYP1A1 and CYP2C19” value [9] was 96%.

In the case of c1ccc2c(c1)ccc1c3ccccc3ccc21 [chrysene], the “Carcinogenic (classifying agencies)” value [1] is given as “EPA, ACGIH”.
